{"source": "patent US20240410907A1", "about": "“FLUORESCENT ION INDICATORS AND THEIR APPLICATIONS” (AAT Bioquest, Inc., priority 2023, published 2024)", "key": {"[1]": {"test": "Absorption spectra in TRIS buffer (pH 7.0) in the presence of 100 mM NaCl", "assay_type": "physicochemical", "settings": "10 μM, TRIS buffer pH 7.0, 100 mM NaCl, FIG. 1", "description": "(§1) FIG. 1. The absorption spectral comparison of SBFI and Compound 8. SBFI (10 μM) and Compound 8 (10 μM) are dissolved in TRIS buffer (pH 7.0). The absorption spectra are recorded in the presence of 100 mM NaCl. […] A longer absorption wavelength minimizes the background caused by naturally occurring biological substances."}, "[2]": {"test": "Sodium ion response, fluorescence intensity with 60 mM NaCl (Fmax) or without NaCl (F0)", "settings": "2.5 μM, Tris-HCl buffer pH 7, 60 mM NaCl (Fmax) vs no NaCl (F0), FIG. 5", "description": "FIG. 5. Comparisons of Compound 8 and SBFI to sodium ion responses. SBFI (2.5 μM) and Compound 8 (2.5 μM) are added in Tris-HCl buffer (pH-7) with 60 mM NaCl (Fmax) or without NaCl (F0) and their fluorescence intensities are recorded. […] SBFI=Black column; Compound 8=Grey column."}, "[3]": {"test": "Excitation and fluorescence spectra in TRIS buffer (pH 7.0) in the presence of 100 mM NaCl", "assay_type": "physicochemical", "settings": "2.5 μM, TRIS buffer pH 7.0, 100 mM NaCl, FIG. 3", "description": "(§2) FIG. 3. The spectral comparison of SBFI and Compound 8. SBFI (2.5 μM) and Compound 8 (2.5 μM) are dissolved in TRIS buffer (pH 7.0). The excitation and fluorescence spectra are recorded in the presence of 100 mM NaCl. […] The strong and sharp fluorescence emission peak is a critical characteristic required for multicolor analysis."}, "[4]": {"test": "Potassium ion response, fluorescence intensity with 60 mM KCl (Fmax) or without KCl (F0)", "settings": "2.5 μM, Tris-HCl buffer pH 7.0, 60 mM KCl (Fmax) vs no KCl (F0), FIG. 6", "description": "FIG. 6. Comparisons of Compound 12 and PBFI to potassium ion responses. PBFI (2.5 μM) and Compound 12 (2.5 μM) are added in Tris-HCl buffer (pH 7.0) with 60 mM KCl (Fmax) or without KCl (F0) and their fluorescence intensities are recorded. […] PBFI=Black column; Compound 12=Grey column."}, "[5]": {"test": "Absorption spectra in TRIS buffer (pH 7.0) in the presence of 100 mM KCl", "assay_type": "physicochemical", "settings": "10 μM, TRIS buffer pH 7.0, 100 mM KCl, FIG. 2", "description": "as §1, with “2.” for “1.”, “PBFI” for “SBFI”, “12. PBFI” for “8. SBFI”, “12” for “8”, “KCl.” for “NaCl.”"}, "[6]": {"test": "Excitation and fluorescence spectra in TRIS buffer (pH 7.0) in the presence of 100 mM KCl", "assay_type": "physicochemical", "settings": "2.5 μM, TRIS buffer pH 7.0, 100 mM KCl, FIG. 4", "description": "as §2, with “4.” for “3.”, “PBFI” for “SBFI”, “12. PBFI” for “8. SBFI”, “12” for “8”, “KCl.” for “NaCl.”, “[…]” for “sharp fluorescence emission peak”"}}}
{"compound": "COc1ccccc1N1CCOCCOCCN(c2cc(C(=O)O)c(-c3c4cc(F)c(=O)cc-4oc4cc(O)c(F)cc34)cc2OC)CCOCC1", "note": "[Compound 8]", "values": [{"measurement": "absorption wavelength compared with SBFI", "setting": "[1]", "value": "much longer absorption wavelength than SBFI"}, {"measurement": "sodium ion response compared with SBFI", "setting": "[2]", "value": "much stronger sodium ion response than SBFI"}, {"measurement": "fluorescence emission peak compared with SBFI", "setting": "[3]", "value": "much stronger and sharper fluorescence emission peak"}]}
{"compound": "COc1ccccc1N1CCOCCOCCN(c2cc(C(=O)O)c(-c3c4cc(F)c(=O)cc-4oc4cc(O)c(F)cc34)cc2OC)CCOCCOCC1", "note": "[Compound 12]", "values": [{"measurement": "potassium ion response compared with PBFI", "setting": "[4]", "value": "much stronger potassium ion response than PBFI"}, {"measurement": "absorption wavelength compared with PBFI", "setting": "[5]", "value": "much longer absorption wavelength than PBFI"}, {"measurement": "fluorescence emission compared with PBFI", "setting": "[6]", "value": "much stronger and sharper"}]}
